We go through two molecules from PMC10778976, “BAY-3827 and SBI-0206965: Potent AMPK Inhibitors That Paradoxically Increase Thr172 Phosphorylation” (International Journal of Molecular Sciences, 2023).

Where “and” joins values, the source holds several entries; their conditions need not be identical. Equal entries are not always repeated. Where two headings read alike, the source gives them in different places.

Test [1] concerns endogenous AMPK from HEK-293 cells. Briefly: Protection of immunoprecipitated AMPK against inactivation by PP2Cα (PPM1A). The format is biochemical, human. The conditions noted are these: immunoprecipitated AMPK, 10 min 30 °C; read-out: half-maximal effect on protection against inactivation by PPM1A. How it is done:
AMPK was immunoprecipitated from HEK-293 cell lysate (2.5 mg of lysate protein) using a mixture of anti-α1 and -α2 antibodies. After extensive washing as in Section 4.5, aliquots equivalent to 80 µg of lysate protein were incubated in a shaking incubator at 30 °C for 10 min in Hepes buffer (50 mM Na Hepes, pH 7.4, 150 mM NaCl, 1 mM dithiothreitol, 0.02% (w/v) Brij-35) with 50 mM MgCl2 and sufficient PPM1A to yield about 80% inactivation, in the presence or absence of 200 µM AMP or the indicated concentration of BAY-3827 or SBI-0206965 (total volume 50 µL). The reaction was terminated by adding 1 mL of IP buffer (50 mM Tris/HCl, pH 7.4 at room temperature, 150 mM NaCl, 1 mM EDTA, 1 mM EGTA, 5 mM Na pyrophosphate, 50 mM NaF, 1 mM dithiothreitol, 0.1% (v/v) Triton X-100) and, after additional washing in the same buffer and a final wash into Hepes buffer, AMPK activity was determined using kinase assays as above.

The target in another test is human α1β1γ1 complex (Homo sapiens, UniProt Q13131). Briefly: Cell-free kinase assay of bacterially expressed human α1β1γ1 complex phosphorylated on Thr172 by CaMKK2. Type of test: biochemical. The conditions noted are these: ATP 200 µM; read-out: IC50, inhibition of human α1β1γ1 complex. The source says:
AMPK assays measured the transfer of radioactivity from labelled ATP to a peptide substrate, which was separated from unreacted ATP by binding to P81 paper. This assay was described previously, except that we used [γ-^33P]ATP rather than [γ-^32P]ATP. The peptide substrate was the AMARA peptide in all experiments other than one, which analyzed allosteric activation by AMP (Figure 2A), when, for technical reasons, the SAMS peptide was used instead. With purified preparations of AMPK, it was assayed in solution, but for assays in cell lysates (Figure 3D and Figure 4D), it was first immunoprecipitated using a mixture of anti-α1 and -α2 antibodies and assayed in resuspended immunoprecipitates. After the initial immunoprecipitation of lysate containing 80 µg of protein, the pellets were washed twice with 1 mL of high salt IP buffer (50 mM Tris-HCL, pH 7.4 at 4 °C, 1 M NaCl, 1 mM EDTA, 1 mM EGTA, 50 mM NaF, 5 mM Na pyrophosphate, 1 mM dithiothreitol, 0.1% (v/v) Triton X-100) and twice with 1 mL of low salt IP buffer (as above but only 150 mM NaCl), followed by a final wash in 1 mL of assay buffer (50 mM Na Hepes, pH7.4, 150 mM NaCl, 1 mM dithiothreitol, 0.02% (v/v) Brij-35). After each wash, the pellet was recovered via centrifugation (16,000× g, 3 min) and then resuspended. […]

Test [2] concerns Raptor (Ser792) phosphorylation in U2OS cells. Briefly: Raptor phosphorylation in U2OS cells (Western blot). Type of test: cell-based, human. The note with it: 30 min inhibitor then 30 min MK-8722 (300 nM), read-out: IC50, inhibition of MK-8722-stimulated Raptor phosphorylation. As for the experimental part: T-Rex U2OS cells carrying a Flp Recombinase Target (FRT) site were generated as described previously and grown in Dulbecco’s Modified Eagle’s Medium (DMEM) supplemented with 10% (v/v) FBS and 1% (v/v) penicillin/streptomycin.
Cells were lysed rapidly in situ on culture plates using ice-cold lysis medium containing phosphatase inhibitors, as described previously.
SDS-PAGE was performed using precast NuPAGE Tris-acetate 3–8% gradient polyacrylamide gels in Tris-acetate running buffer when analyzing ACC, GBF1, or Raptor, or NuPAGE Bis-Tris 4–12% gradient polyacrylamide gels in the MOPS buffer system (ThermoFisher Scientific, Waltham, MA, USA) for other proteins (unless stated otherwise). Proteins were transferred to nitrocellulose membranes using the iBlot 2 system (ThermoFisher Scientific). Membranes were enhanced if necessary using SuperSignal Western Blot Enhancer (ThermoFisher Scientific), then blocked for 1 h in Li-Cor Odyssey blocking buffer. The membranes were probed with the appropriate primary antibody ([…]) overnight at 4 °C. Detection was performed using secondary antibody or streptavidin probe (for total ACC) coupled to IR 680 or IR 800 dye, and the membranes were scanned using the LICOR Odyssey IR imager. Protein concentrations were determined by Coomassie Blue binding with bovine serum albumin as a standard. The cellular levels of AMP and ATP were determined via direct perchloric acid extraction from cells, with LC:MS used to estimate the levels of each nucleotide.

The test system of test [3] is native AMPK purified from rat liver. Briefly: Cell-free kinase assay of purified rat liver AMPK. Type of test: biochemical. The note with it: ATP 200 µM; for IC50: read-out: IC50, inhibition of rat liver AMPK complexes. The text has this: AMPK assays measured the transfer of radioactivity from labelled ATP to a peptide substrate, which was separated from unreacted ATP by binding to P81 paper. This assay was described previously, except that we used [γ-^33P]ATP rather than [γ-^32P]ATP. The peptide substrate was the AMARA peptide in all experiments other than one, which analyzed allosteric activation by AMP (Figure 2A), when, for technical reasons, the SAMS peptide was used instead. […] After each wash, the pellet was recovered via centrifugation (16,000× g, 3 min) and then resuspended. The final resuspended pellets from each biological replicate were divided into two aliquots (40 µg lysate protein) to provide technical replicates and assayed as above.

The next test has as its system T1, PPM1A.
T1 construct: made in house
Put plainly: PPM1A activity using p-nitrophenyl phosphate. The format is biochemical. The note with it: p-nitrophenyl phosphate substrate, concentrations as in Figure 5A. How it is done:
To directly determine LKB1 activity, kinase assays were performed in the presence or absence of the indicated concentration of BAY-3827 or SBI-0206965 as for AMPK, except that LKBtide was used as a peptide substrate. PPM1A activity was determined using p-nitrophenyl phosphate (pNPP) as a substrate. PPM1A (5 µg) was incubated with 50 mM pNPP and 50 mM MgCl2 in Hepes buffer in the presence of a vehicle or the indicated concentration of BAY-3827 or SBI-0206965 for 10 min at 30 °C. The reaction was quenched by the addition of 1 mL of 0.5 M EDTA and the amount of product, p-nitrophenol, determined by measuring absorbance at 405 nm.

Chain of human α1β1γ1 complex (Q13131 whole entry): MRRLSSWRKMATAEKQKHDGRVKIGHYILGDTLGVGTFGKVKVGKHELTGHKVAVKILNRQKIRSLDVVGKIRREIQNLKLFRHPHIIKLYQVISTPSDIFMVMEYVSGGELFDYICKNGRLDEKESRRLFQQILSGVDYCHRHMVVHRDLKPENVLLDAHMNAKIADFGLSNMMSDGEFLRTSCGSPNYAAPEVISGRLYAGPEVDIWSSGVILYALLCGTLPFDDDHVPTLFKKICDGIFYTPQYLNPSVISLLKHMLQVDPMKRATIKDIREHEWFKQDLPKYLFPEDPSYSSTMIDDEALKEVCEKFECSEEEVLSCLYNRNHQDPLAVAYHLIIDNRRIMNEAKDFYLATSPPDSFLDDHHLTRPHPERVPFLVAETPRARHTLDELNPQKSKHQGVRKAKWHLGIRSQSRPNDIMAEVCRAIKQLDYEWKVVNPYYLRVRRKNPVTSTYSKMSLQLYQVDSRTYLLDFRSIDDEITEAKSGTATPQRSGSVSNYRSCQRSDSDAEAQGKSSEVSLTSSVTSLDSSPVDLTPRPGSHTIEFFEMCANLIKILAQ
Chain of human α1β1γ1 complex (P54619 whole entry, further chain): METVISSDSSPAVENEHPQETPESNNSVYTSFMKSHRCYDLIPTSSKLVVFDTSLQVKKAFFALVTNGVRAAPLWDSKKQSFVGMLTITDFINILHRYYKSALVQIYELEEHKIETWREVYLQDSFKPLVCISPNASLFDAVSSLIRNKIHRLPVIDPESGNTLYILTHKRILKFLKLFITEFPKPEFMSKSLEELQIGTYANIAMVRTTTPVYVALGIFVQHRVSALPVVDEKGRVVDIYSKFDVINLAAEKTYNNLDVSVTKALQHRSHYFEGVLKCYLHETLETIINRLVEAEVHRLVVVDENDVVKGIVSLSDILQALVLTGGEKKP
Chain of human α1β1γ1 complex (Q9Y478 2-270, further chain): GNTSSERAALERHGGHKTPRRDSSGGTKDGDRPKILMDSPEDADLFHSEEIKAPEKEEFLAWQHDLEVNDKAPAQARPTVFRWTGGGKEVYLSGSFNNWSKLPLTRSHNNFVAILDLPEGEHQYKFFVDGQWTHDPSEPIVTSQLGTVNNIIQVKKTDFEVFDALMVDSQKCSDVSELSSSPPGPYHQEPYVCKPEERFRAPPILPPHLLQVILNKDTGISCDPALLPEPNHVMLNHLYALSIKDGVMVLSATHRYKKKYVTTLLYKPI

One may read the IC50 as the concentration that inhibits the measured activity by half. Regarding `CCc1ccccc1C(=O)Nc1n[nH]c2c(C)c(F)c(C3C(C#N)=C(C)N(C)C(C)=C3C#N)cc12` [BAY-3827], the EC50 in test [1] was found to be 7 nM. The IC50 at human α1β1γ1 complex was determined as 25 nM; in test [2] (Homo sapiens, 0.5 h) it was 0.113 µM; in test [3], 17 nM. Further, the “fold more potent than SBI-0206965 against purified rat liver AMPK” value in test [3] is > 20 fold. For the same molecule, the “effect on activity of PPM1A” value in the test with PPM1A is given as “Lack of effect”.

`CNC(=O)c1ccccc1Oc1nc(Nc2cc(OC)c(OC)c(OC)c2)ncc1Br` [SBI-0206965]: the EC50 in test [1] amounted to 290 nM. Moreover, the IC50 is 247 nM and 250 nM on human α1β1γ1 complex; 9.2 µM in test [2]; 360 nM in test [3]. Also, the “effect on activity of PPM1A” value in the test with PPM1A is recorded as “Lack of effect”.
